How the values were obtained:
Test in all cases: Eurofins binding screen
[1] = target: Serotonin 5-HT2B (Homo sapiens, UniProt P41595)
[2] = target: Calcitonin gene-related peptide CGRP (Homo sapiens, UniProt O60894+Q16602)
[3] = system: Potassium channels SKCa; conditions: 10 µM
[4] = target: Bradykinin B2 (Homo sapiens, UniProt P30411)
[5] = target: Chemokines CXCR2 (IL-8B) (Homo sapiens, UniProt P25025)
[6] = target: Dopamine D2S (Homo sapiens, UniProt P14416)
[7] = target: Chemokines CCR1 (Homo sapiens, UniProt P32246)
[8] = target: Adrenergic beta1 (Homo sapiens, UniProt P08588)
[9] = system: Potassium channels KV; conditions: 10 µM
[10] = target: Muscarinic M5 (Homo sapiens, UniProt P08912)
[11] = system: Purinergic P2Y; conditions: 10 µM
[12] = system: ER; conditions: 10 µM
[13] = target: Serotonin 5-HT2A (Homo sapiens, UniProt P28223)
Sequence of Serotonin 5-HT2A (P28223 whole entry): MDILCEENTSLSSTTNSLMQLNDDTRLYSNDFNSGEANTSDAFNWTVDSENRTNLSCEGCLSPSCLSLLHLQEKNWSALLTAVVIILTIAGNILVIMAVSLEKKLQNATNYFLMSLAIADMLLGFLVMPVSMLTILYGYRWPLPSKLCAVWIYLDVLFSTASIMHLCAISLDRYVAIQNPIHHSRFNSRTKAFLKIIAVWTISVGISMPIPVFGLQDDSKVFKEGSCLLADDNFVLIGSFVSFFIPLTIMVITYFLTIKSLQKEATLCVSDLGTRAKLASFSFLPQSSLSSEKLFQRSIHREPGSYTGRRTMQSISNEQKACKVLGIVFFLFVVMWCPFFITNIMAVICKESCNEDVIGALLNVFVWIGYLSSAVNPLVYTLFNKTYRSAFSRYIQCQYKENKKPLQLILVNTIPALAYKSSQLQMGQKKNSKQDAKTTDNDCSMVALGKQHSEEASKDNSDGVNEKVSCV

[14] = system: BZD (central); conditions: 10 µM
[15] = system: Kinase PDGF; conditions: 10 µM
[16] = target: Prostanoid EP4 (Homo sapiens, UniProt P35408)
[17] = system: TNF-alpha; conditions: 10 µM
[18] = system: Adrenergic alpha2; conditions: 10 µM
[19] = system: Cl- channel; conditions: 10 µM
[20] = target: NOP (ORL1) (Homo sapiens, UniProt P41146)
[21] = system: Somatostatin sst; conditions: 10 µM
[22] = target: Angiotensin-II AT1 (Homo sapiens, UniProt P30556)
Sequence of Angiotensin-II AT1 (P30556 whole entry): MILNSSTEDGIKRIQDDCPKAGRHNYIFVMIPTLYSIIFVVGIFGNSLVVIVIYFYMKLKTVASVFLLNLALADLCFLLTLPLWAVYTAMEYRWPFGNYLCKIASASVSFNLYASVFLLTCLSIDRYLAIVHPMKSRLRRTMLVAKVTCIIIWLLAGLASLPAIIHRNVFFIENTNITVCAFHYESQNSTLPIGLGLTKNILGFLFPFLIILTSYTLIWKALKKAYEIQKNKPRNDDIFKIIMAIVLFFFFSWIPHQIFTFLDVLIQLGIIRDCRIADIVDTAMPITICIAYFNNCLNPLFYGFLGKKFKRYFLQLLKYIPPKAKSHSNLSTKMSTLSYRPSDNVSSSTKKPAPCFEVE

[23] = target: Serotonin 5-HT7 (Homo sapiens, UniProt P34969)
Sequence of Serotonin 5-HT7 (P34969 whole entry): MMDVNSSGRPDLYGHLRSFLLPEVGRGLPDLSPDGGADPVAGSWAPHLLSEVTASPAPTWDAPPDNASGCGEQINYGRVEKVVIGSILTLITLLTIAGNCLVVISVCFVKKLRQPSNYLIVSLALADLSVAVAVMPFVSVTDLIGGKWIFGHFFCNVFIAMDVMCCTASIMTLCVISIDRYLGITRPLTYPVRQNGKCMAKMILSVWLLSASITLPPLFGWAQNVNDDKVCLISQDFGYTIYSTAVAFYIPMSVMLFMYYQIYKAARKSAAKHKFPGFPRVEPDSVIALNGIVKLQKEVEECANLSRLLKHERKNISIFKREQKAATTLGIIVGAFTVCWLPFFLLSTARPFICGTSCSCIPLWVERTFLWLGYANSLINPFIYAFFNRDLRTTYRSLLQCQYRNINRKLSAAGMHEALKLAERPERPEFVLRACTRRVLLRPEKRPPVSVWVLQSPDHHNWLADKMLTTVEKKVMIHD

[24] = target: Neurokinin NK1 (Homo sapiens, UniProt P25103)
Sequence of Neurokinin NK1 (P25103 whole entry): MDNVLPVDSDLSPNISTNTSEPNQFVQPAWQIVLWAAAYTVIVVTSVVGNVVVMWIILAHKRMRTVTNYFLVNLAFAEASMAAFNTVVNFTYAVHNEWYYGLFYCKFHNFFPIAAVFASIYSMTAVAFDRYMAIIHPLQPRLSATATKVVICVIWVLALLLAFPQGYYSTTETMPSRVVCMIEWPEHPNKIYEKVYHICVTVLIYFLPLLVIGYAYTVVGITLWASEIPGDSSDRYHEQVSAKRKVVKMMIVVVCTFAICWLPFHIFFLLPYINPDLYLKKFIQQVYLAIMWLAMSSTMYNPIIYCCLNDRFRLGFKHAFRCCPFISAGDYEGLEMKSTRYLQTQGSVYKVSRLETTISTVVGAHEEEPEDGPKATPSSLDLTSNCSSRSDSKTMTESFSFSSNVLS

[25] = target: Dopamine D4.4 (Homo sapiens, UniProt P21917)
[26] = target: Angiotensin-II AT2 (Homo sapiens, UniProt P50052)
[27] = system: Calcium channels Ca2+-L; conditions: 10 µM
[28] = system: Serotonin 5-HT1B; conditions: 10 µM
[29] = target: Galanin GAL1 (Homo sapiens, UniProt P47211)
[30] = target: Norepinephrine transporter NET (Homo sapiens, UniProt P23975)
[31] = system: GABA; conditions: 10 µM
[32] = system: Bombesin BB; conditions: 10 µM
[33] = target: Cholecystokinin CCK1 (CCKA) (Homo sapiens, UniProt P32238)
Sequence of Cholecystokinin CCK1 (CCKA) (P32238 whole entry): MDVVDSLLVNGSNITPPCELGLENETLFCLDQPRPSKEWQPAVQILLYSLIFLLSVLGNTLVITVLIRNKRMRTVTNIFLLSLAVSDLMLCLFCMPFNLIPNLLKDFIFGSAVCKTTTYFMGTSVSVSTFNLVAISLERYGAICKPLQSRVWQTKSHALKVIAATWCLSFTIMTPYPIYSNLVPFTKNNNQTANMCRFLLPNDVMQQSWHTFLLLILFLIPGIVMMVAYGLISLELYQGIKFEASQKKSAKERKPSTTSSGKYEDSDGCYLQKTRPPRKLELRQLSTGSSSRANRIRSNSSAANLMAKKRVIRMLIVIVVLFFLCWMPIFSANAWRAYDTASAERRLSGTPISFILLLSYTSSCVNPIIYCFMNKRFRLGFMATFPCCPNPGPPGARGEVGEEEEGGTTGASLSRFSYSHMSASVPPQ

[34] = target: Dopamine D5 (Homo sapiens, UniProt P21918)
[35] = target: Neurotensin NTS1 (NT1) (Homo sapiens, UniProt P30989)
Sequence of Neurotensin NTS1 (NT1) (P30989 whole entry): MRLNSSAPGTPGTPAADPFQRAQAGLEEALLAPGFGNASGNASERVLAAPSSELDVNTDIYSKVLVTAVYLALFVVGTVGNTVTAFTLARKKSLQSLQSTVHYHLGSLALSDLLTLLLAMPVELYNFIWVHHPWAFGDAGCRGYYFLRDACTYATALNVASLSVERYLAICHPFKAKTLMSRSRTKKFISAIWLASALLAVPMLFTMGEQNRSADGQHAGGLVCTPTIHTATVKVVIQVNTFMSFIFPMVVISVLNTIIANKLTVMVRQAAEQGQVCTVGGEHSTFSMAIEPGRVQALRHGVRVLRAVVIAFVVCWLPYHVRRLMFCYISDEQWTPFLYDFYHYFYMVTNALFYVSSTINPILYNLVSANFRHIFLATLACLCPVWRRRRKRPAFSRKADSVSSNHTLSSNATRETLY

[36] = target: Serotonin 5-HT2C (Homo sapiens, UniProt P28335)
[37] = target: Serotonin 5-HT5a (Homo sapiens, UniProt P47898)
[38] = target: Cannabinoid CB1 (Homo sapiens, UniProt P21554)
[39] = target: Adenosine A2A (Homo sapiens, UniProt P29274)
[40] = target: Dopamine D1 (Homo sapiens, UniProt P21728)
[41] = target: Prostanoid IP (PGI2) (Homo sapiens, UniProt P43119)
[42] = target: Serotonin 5-HT6 (Homo sapiens, UniProt P50406)
Sequence of Serotonin 5-HT6 (P50406 whole entry): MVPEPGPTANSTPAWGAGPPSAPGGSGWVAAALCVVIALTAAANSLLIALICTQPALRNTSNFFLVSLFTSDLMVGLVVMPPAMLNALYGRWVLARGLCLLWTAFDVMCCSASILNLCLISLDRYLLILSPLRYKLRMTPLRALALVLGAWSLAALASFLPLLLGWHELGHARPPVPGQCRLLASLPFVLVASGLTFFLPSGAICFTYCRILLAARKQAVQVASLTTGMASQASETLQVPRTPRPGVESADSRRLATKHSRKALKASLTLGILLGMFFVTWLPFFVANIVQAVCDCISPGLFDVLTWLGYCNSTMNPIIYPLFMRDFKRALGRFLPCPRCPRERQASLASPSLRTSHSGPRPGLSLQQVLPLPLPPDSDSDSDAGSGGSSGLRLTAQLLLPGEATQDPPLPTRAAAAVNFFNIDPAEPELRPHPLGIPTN

[43] = target: Histamine H2 (Homo sapiens, UniProt P25021)
[44] = target: Muscarinic M2 (Homo sapiens, UniProt P08172)
[45] = target: Neurokinin NK2 (Homo sapiens, UniProt P21452)
[46] = target: Muscarinic M1 (Homo sapiens, UniProt P11229)
Sequence of Muscarinic M1 (P11229 whole entry): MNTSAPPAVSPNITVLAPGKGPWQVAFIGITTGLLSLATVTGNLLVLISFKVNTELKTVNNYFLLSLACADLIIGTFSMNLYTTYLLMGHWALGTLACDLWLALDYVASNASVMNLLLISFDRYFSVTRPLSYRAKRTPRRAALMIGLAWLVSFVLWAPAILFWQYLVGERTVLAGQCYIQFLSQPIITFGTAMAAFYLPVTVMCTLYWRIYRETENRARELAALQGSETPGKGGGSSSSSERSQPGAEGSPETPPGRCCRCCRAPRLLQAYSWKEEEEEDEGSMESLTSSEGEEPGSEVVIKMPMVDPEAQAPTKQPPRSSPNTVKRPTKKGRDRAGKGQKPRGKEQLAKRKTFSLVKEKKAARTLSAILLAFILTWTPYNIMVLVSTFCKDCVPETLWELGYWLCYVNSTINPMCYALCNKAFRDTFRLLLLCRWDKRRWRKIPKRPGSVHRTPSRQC

[47] = read-out: Percent inhibition of control specific binding

Sequence of Chemokines CXCR2 (IL-8B) (P25025 whole entry): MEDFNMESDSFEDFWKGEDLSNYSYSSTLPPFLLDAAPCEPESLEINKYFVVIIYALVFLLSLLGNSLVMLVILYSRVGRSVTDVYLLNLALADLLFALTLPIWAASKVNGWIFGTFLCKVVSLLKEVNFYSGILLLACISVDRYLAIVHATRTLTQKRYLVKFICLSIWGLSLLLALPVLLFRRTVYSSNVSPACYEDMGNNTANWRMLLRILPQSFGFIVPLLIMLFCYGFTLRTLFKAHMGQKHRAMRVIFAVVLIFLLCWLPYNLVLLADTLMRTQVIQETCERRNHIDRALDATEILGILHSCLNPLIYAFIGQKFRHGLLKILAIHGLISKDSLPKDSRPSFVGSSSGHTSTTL
Sequence of Dopamine D2S (P14416 1-414 isoform P14416-2): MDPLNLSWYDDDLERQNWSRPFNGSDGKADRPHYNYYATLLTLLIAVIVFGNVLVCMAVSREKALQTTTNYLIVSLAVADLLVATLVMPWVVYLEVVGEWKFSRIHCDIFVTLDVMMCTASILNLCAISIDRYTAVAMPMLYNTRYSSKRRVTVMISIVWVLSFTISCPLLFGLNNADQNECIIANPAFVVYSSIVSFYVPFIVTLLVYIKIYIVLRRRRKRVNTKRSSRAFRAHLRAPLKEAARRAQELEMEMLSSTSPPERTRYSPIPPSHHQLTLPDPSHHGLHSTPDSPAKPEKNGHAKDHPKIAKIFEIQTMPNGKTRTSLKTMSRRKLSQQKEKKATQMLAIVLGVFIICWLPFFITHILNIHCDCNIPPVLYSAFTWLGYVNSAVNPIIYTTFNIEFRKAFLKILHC
Sequence of Calcitonin gene-related peptide CGRP (Q16602 23-461): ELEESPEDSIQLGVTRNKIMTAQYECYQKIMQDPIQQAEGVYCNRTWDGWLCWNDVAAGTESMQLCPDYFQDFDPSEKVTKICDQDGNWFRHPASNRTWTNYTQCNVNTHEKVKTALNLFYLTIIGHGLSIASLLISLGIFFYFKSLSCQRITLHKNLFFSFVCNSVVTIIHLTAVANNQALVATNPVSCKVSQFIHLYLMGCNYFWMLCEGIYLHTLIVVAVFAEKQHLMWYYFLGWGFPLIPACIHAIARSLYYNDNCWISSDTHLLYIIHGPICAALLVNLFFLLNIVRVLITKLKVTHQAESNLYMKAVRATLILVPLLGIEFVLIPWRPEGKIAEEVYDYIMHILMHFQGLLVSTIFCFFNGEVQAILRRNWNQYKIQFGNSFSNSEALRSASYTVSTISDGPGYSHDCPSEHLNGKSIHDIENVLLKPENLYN
Sequence of Calcitonin gene-related peptide CGRP (O60894 27-148): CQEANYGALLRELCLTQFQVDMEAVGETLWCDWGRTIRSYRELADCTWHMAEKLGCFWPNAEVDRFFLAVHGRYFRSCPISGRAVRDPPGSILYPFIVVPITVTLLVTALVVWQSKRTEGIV

COc1ccc(CO[C@H]2CC[C@@]3(C)C(=CC[C@H]4[C@@H]5CC[C@H](C(C)=O)[C@@]5(C)CC[C@@H]43)C2)cc1 [AEF0117, 3β-(4-methoxybenzyloxy)pregn-5-en-20-one]
inhibition at 10 µM [1, 47]: -15% | inhibition at 10 µM [2, 47]: -21% | Percent inhibition of control specific binding [3]: 12% | inhibition at 10 µM [4, 47]: -1% | inhibition at 10 µM [5, 47]: -1% | inhibition at 10 µM [6, 47]: -1% | inhibition at 10 µM [7, 47]: 5% | inhibition at 10 µM [8, 47]: 3% | Percent inhibition of control specific binding [9]: -5% | inhibition at 10 µM [10, 47]: -5% | Percent inhibition of control specific binding [11]: 16% | Percent inhibition of control specific binding [12]: 31% | inhibition at 10 µM [13, 47]: 2% | Percent inhibition of control specific binding [14]: 1% | Percent inhibition of control specific binding [15]: -8% | inhibition at 10 µM [16, 47]: 10% | Percent inhibition of control specific binding [17]: -5% | Percent inhibition of control specific binding [18]: 7% | Percent inhibition of control specific binding [19]: -4% | inhibition at 10 µM [20, 47]: -7% | Percent inhibition of control specific binding [21]: -4% | inhibition at 10 µM [22, 47]: 7% | inhibition at 10 µM [23, 47]: -1% | inhibition at 10 µM [24, 47]: -18% | inhibition at 10 µM [25, 47]: -7% | inhibition at 10 µM [26, 47]: -8% | Percent inhibition of control specific binding [27]: -1% | Percent inhibition of control specific binding [28]: -15% | inhibition at 10 µM [29, 47]: -4% | inhibition at 10 µM [30, 47]: -5% | Percent inhibition of control specific binding [31]: 9% | Percent inhibition of control specific binding [32]: 12% | inhibition at 10 µM [33, 47]: -19% | inhibition at 10 µM [34, 47]: -2% | inhibition at 10 µM [35, 47]: -14% | inhibition at 10 µM [36, 47]: 4% | inhibition at 10 µM [37, 47]: 1% | inhibition at 10 µM [38, 47]: 11% | inhibition at 10 µM [39, 47]: -3% | inhibition at 10 µM [40, 47]: -12% | inhibition at 10 µM [41, 47]: -4% | inhibition at 10 µM [42, 47]: -2% | inhibition at 10 µM [43, 47]: 3% | inhibition at 10 µM [44, 47]: -3% | inhibition at 10 µM [45, 47]: -28% | inhibition at 10 µM [46, 47]: -14%

CC(=O)[C@H]1CC[C@H]2[C@@H]3CC=C4C[C@@H](O)CC[C@]4(C)[C@H]3CC[C@]12C [pregnenolone, reference compound]
Percent inhibition of control specific binding ([1]; 10 µM): -38% | Percent inhibition of control specific binding ([2]; 10 µM): -12% | Percent inhibition of control specific binding [3]: -8% | Percent inhibition of control specific binding ([4]; 10 µM): -9% | Percent inhibition of control specific binding ([5]; 10 µM): -10% | Percent inhibition of control specific binding ([6]; 10 µM): 5% | Percent inhibition of control specific binding ([7]; 10 µM): -10% | Percent inhibition of control specific binding ([8]; 10 µM): 4% | Percent inhibition of control specific binding [9]: -23% | Percent inhibition of control specific binding ([10]; 10 µM): 8% | Percent inhibition of control specific binding [11]: -3% | Percent inhibition of control specific binding [12]: 26% | Percent inhibition of control specific binding ([13]; 10 µM): -1% | Percent inhibition of control specific binding [14]: -43% | Percent inhibition of control specific binding [15]: -15% | Percent inhibition of control specific binding ([16]; 10 µM): 21% | Percent inhibition of control specific binding [17]: 4% | Percent inhibition of control specific binding [18]: -2% | Percent inhibition of control specific binding [19]: 29% | Percent inhibition of control specific binding ([20]; 10 µM): 2% | Percent inhibition of control specific binding [21]: -8% | Percent inhibition of control specific binding ([22]; 10 µM): -28% | Percent inhibition of control specific binding ([23]; 10 µM): 11% | Percent inhibition of control specific binding ([24]; 10 µM): 17% | Percent inhibition of control specific binding ([25]; 10 µM): 20% | Percent inhibition of control specific binding ([26]; 10 µM): -18% | Percent inhibition of control specific binding [27]: -19% | Percent inhibition of control specific binding [28]: -28% | Percent inhibition of control specific binding ([29]; 10 µM): -16% | Percent inhibition of control specific binding ([30]; 10 µM): -12% | Percent inhibition of control specific binding [31]: 10% | Percent inhibition of control specific binding [32]: -18% | Percent inhibition of control specific binding ([33]; 10 µM): -30% | Percent inhibition of control specific binding ([34]; 10 µM): -4% | Percent inhibition of control specific binding ([35]; 10 µM): -19% | Percent inhibition of control specific binding ([36]; 10 µM): -9% | Percent inhibition of control specific binding ([37]; 10 µM): 11% | Percent inhibition of control specific binding ([38]; 10 µM): 10% | Percent inhibition of control specific binding ([39]; 10 µM): -1% | Percent inhibition of control specific binding ([40]; 10 µM): -8% | Percent inhibition of control specific binding ([41]; 10 µM): -12% | Percent inhibition of control specific binding ([42]; 10 µM): 5% | Percent inhibition of control specific binding ([43]; 10 µM): 9% | Percent inhibition of control specific binding ([44]; 10 µM): -4% | Percent inhibition of control specific binding ([45]; 10 µM): -1% | Percent inhibition of control specific binding ([46]; 10 µM): -14%
